Where no end group is shown, it is not given here. rhodamine = not defined here
What was measured:
PKA [1] = test: Timecourse of phosphorylation of peptides by PKA (32P-ATP); format: biochemical; details: 0.2 mM ATP, pH 7.0
Experimental: Peptides (0.01–1.0 μM) are phosphorylated by purified c-PKA in 50 mM Histidine buffer pH 7.0, 5 mM MgSO4, 1 mM EGTA, 0.1–1.0 μM c-PKA, and 0.2 mM [^32P] γ-ATP (specific activity ˜2Bq/pmol) at 30–37° C. for periods of time ranging from 0 to 60 minutes. Where the chemistry of the peptide is appropriate (i.e. having a basic charge) the phosphopeptide is captured on a cation exchange filter paper (e.g. phosphocellulose P81 paper; Whatman), and reactants are removed by extensive washing in 1% phosphoric acid (see Casnellie, 1991, Methods Enzymol., 200: 115–120). Alternatively, phosphorylation of samples is terminated by the addition of SDS-sample buffer (Laemmli, 1970, Nature, 227: 680–685) and the samples analysed by SDS-PAGE electrophoresis, autoradiography and scintillation counting of gel pieces.
A timecourse of phosphorylation of these peptides by PKA was run in 50 mM histidine/HCl (pH 7.0), 5 mM MgSO4, 5 mM NaF, 0.05 mM EGTA, 120 mM KCl with 0.2 mM ATP (30.9 cpm/pmol ^32P-ATP) and 0.5 μM PKA. […] Zip4T is also phosphorylated, but at a slower rate, with full phosphorylation achieved in 30 minutes in this assay. In this assay, the difference in cpm recovered between the Zip4 peptides and PL919Y was due to the difference in recovery of these peptides on P81 paper; however, a plateau was taken to indicate full phosphorylation.
(§1) A second set of timecourses of phosphorylation was performed on Zip4S using PKA and Ca^2+/Calmodulin-dependent Protein Kinase (CaMKII), together with positive and negative controls for CaMKII (used to confirm that the crude preparation of CaMKII had the expected characteristics of that enzyme). PKA phosphorylation was performed in 50 mM histidine/HCl (pH 7.0), 5 mM MgSO4, 5 mM NaF, 0.05 mM EGTA, 120 mM KCl with 0.2 mM ATP (39.72 cpm/pmol ^32P-ATP) and 0.25 μM PKA. CaMKII phosphorylation was performed in 50 mM histidine/HCl (pH 7.0), 5 mM MgSO4, 5 mM NaF, 120 mM KCl, 0.5 mM Ca^2+, 0.037 mg/ml calmodulin with 0.2 mM ATP (39.72 cpm/pmol ^32P-ATP) and 10% crude CaMKII. In the Ca^2+-free experiment, Ca^2+ was replaced by 0.05 mM EGTA. […] Such specificity of a modification site included in a polypeptide comprising a coiled-coil is critical for use of the invention in an intracellular environment.

[2] = system: Ca2+/Calmodulin-dependent Protein Kinase (CaMKII); test: Timecourse of phosphorylation by CaMKII (32P-ATP); format: biochemical; details: 10% crude CaMKII, 0.5 mM Ca2+, 0.2 mM ATP
Experimental: as §1

[3] = Circular dichroism spectra and thermal denaturation of coiled-coil peptides; format: physicochemical
Experimental: The circular dichroism (measured in units of ellipticity) of proteins at 222 nm provides a measure of the amount of α-helix present in the structure, with a large, negative ellipticity indicting a high level of helicity. The coiled-coil has a distinctive α-helical CD spectrum with minima at 222 nm and 208 nm (O'Shea et al., 1989, Science, 243: 538–542). […] In all experiments described herein, peptide concentration was determined by tyrosine absorbance at 280 nm in 6M GuHCl. […] It is clear that this leucine zipper peptide began to unfold at around 35° C. and was completely unfolded by 70° C.
As in Example 1, circular dichroism was used to assess the coiled-coil structure of the Zip4 polypeptides and the disruption of that structure by phosphorylation. […] This was confirmed by the CD spectra of Zip4S and Zip4SP at 1° C. (FIG. 12).
The coiled-coil motif has a characteristic CD spectrum. As described above, measurement of circular dichroism is useful to distinguish monomeric polypeptides from oligomers and to assess the stability of the structure present, although the technique cannot give information regarding the number of monomers making up the coiled-coil structure. […] Importantly, these peptides shown only have 4.5 leucine zipper heptads, and the incomplete nature of the final heptad is likely to compromise the stability of the coiled-coil structure.

PKA [4] = test: FRET report of phosphorylation of labeled peptides by PKA; format: biochemical; details: Zip4SF with Zip4SR, ATP present
Experimental: Donor and acceptor fluorophore-labeled polypeptides comprising coiled-coils (molar equivalents of fluorophore-labeled polypeptide or molar excess of acceptor-labeled polypeptide) are first mixed (if the two coiled-coils are present on separate polypeptides). Samples are analyzed in a fluorimeter using excitation wavelengths relevant to the donor fluorescent moiety and emission wavelengths relevant to both the donor and acceptor moieties. […] Typically, measurements are performed at 0–37° C. as a function of time following the addition of the modifying enzyme (and, optionally, a modulator or candidate modulator of function for that enzyme, as described below) to the system in 50 mM histidine pH 7.0, 120 mM KCl, 5 mM MgSO4, 5 mM NaF, 0.05 mM EGTA and 0.2 mM ATP. The assay may be performed at a higher temperature if that temperature is compatible with the enzyme(s) under study.
(§2) Fluorescence was used to report on the phosphorylation status of these peptides (FIG. 13). […] No loss of FRET was observed on addition of PKA in the absence of ATP (data not shown).
Calculation of the ratio of fluorescence output is important, particularly for in vivo applications, thereby avoiding error due to high local concentrations of reporter in the system and enhancing the ability to observe meaningful change.

partner peptide = test: FRET between fluorescein- and rhodamine-labeled coiled-coil peptides (association); format: binding; details: emission at 516 nm
Experimental: Peptides were then labeled using a method adapted from one known in the art (Hermanson, 1997, Bioconjugate Techniques, Academic Press). 20 mM fluorescein iodoacetamide (FAM) in DMSO and 0.23 mM peptide in 20 mM TES buffer, pH 7.0 were prepared. These were mixed in a molar ratio of 0.9:1 (peptide:label) and incubated at 4° C. in the dark for a minimum of 2 hours. Initially, this method was also applied to labelling with rhodamine maleimide at a ratio of 0.9:2; however, in other experiments, good labelling has been obtained using rhodamine iodoacetamide at a ratio of 0.9:1. Labelling was assessed by reverse phase HPLC (C18 column; solvent A: H2O/0.1% TFA; solvent B: acetonitrile/0.1% TFA) and MALDI-TOF mass spectrometry.
This was accompanied by an increase in fluorescence detected in the rhodamine emission region (not shown).
as §2

Zip4SF = molecular target: T1, Zip4SF (not fully specified; fluorescent donor label (fluorescein, by analogy with Zip3F) on the single Cys); test: FRET, emission spectra
T1 peptide: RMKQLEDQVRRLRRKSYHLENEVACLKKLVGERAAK

[5] = molecular target: the molecule itself; test: circular dichroism, self-association

In the case of “R MKQLEDQ VRRLRRK SYHLENE VACLKKL VGERAAK (RMKQLEDQVRRLRRKSYHLENEVACLKKLVGERAAK) [Zip4S, 28]”, the “phosphorylation by PKA (extent)” value (PKA [1]; 0.25 μM PKA) is reported as “complete phosphorylation”, the “phosphorylation by PKA (substrate quality, rate)” value (PKA [1]; 0.5 μM PKA) is reported as “good substrate” and the “phosphorylation by CaMKII” value [2] is reported as “unable to phosphorylate”.

With “R MKQLEDQ VRRLRRK TYHLENE VACLKKL VGERAAK (RMKQLEDQVRRLRRKTYHLENEVACLKKLVGERAAK) [Zip4T, 29]” the “phosphorylation by PKA (substrate quality, rate)” value (PKA [1]; 0.5 μM PKA) was “slower rate”, the “time to full phosphorylation by PKA” value (PKA [1]; 0.5 μM PKA) was 30 min and the “relative thermostability (thermal denaturation by CD)” value ([3]; same conditions as Zip3) was “more stable than was Zip4S”.

With “Zip4SF: Zip4S labeled with fluorescein (FRET donor) (RMKQLEDQVRRLRRKSYHLENEVACLKKLVGERAAK; also: labeled with fluorescein (site not given here))” the “emission at 516 nm on addition of PKA (loss of FRET)” value (PKA [4]) was “returned to above the level produced by Zip4SF alone” and the “FRET upon addition of Zip4SR” value (partner peptide) was “loss of emission at 516 nm”.

With “Zip4SP: enzymatically phosphorylated Zip4S (RMKQLEDQVRRLRRKSYHLENEVACLKKLVGERAAK; also: enzymatically phosphorylated (site not given here))” the “folding state in thermal melting/denaturation (ellipticity at 222 nm)” value ([3]; from starting temperature of 1° C.) was “unfolded polypeptide in solution”.

B1: Zip4SR (peptide)
peptide: RMKQLEDQVRRLRRKSYHLENEVAC(rhodamine)LKKLVGERAAK
modifications: reading uncertain
notes: the labelling of Zip4S itself is not spelled out
B1: binds (Zip4SF).

B2: Zip 1 (peptide)
peptide: HMKQLEDKVEELLSKNYCLENEVRRLRRASFSLQ
notes: Initial unsuccessful reporter peptide
B2: binds [5].

B3: Zip 2 (peptide)
peptide: RRIRRASIDKVEELKSKNYCLENEVARLKKLVGER
notes: Initial unsuccessful reporter peptide; also called Zip2s
B3: binds [5].

From US7105307B2, “Compositions and methods for screening for modulators of enzymatic activity” (Cyclacel, Ltd., priority 1997, dated 2006)
